According to patent US20240239748A1, “NOVEL FORMS OF ENTINOSTAT” (Macfarlan Smith Limited, priority 2021, published 2024):
Values after ≈ are worked out from the molar mass of the structure shown. Read-outs that look alike come from different tables or passages of the source.

Key:
[1] = Protocol: XRPD diffractograms are collected on a Bruker D8 diffractometer using Cu Ka radiation (40 kV, 40 mA) and a 0-20 goniometer fitted with a Ge monochromator. The incident beam passes through a 2.0 mm divergence slit followed by a 0.2 mm anti-scatter slit and knife edge. The diffracted beam passes through an 8.0 mm receiving slit with 2.5° Soller slits followed by the Lynxeye Detector. The software used for data collection and analysis is Diffrac Plus XRD Commander and Diffrac Plus EVA respectively. Samples are run under ambient conditions as flat plate specimens using powder as received. The sample is prepared on a polished, zero-background (510) silicon wafer by gently pressing onto the flat surface or packed into a cut cavity. The sample is rotated in its own plane.
The details of the standard data collection method are: • Angular range: 2 to 42° 20 • Step size: 0.05° 20 • Collection time: 0.5 s/step (total collection time: 6.40 min)

[2] = remark: listed apart in the source
Protocol: Sorption isotherms are obtained using a Hiden IGASorp moisture sorption analyser, controlled by Isochema HISorp software. The sample temperature is maintained at 25° C. by a Grant LT ecocool 150 re-circulating water bath. The humidity is controlled by mixing streams of dry and wet nitrogen, with a total flow rate of 250 ml/min. The relative humidity is measured by a calibrated Vaisala RH probe (dynamic range of 0-95% RH), located near the sample. The weight change, (mass relaxation) of the sample as a function of % RH is constantly monitored by the microbalance (accuracy±0.001 mg). Typically, 20-30 mg of sample is placed in a tared mesh stainless steel basket under ambient conditions. The sample is loaded and unloaded at 40% RH and 25° C.(typical room conditions). A moisture sorption isotherm is performed as outlined below (2 scans, giving 1 complete cycle). The standard isotherm is performed at 25° C. at 10% RH intervals over a 0-90% RH range.

[3] = 4 hour solubility in buffered media (HPLC quantitation); assay type: physicochemical; conditions: thermodynamic from solid, 25° C.
Protocol: Sufficient sample is suspended in 1.0 ml media for a maximum anticipated concentration of about 10 mg/ml of the free form of the compound. The resulting suspensions are then shaken at 25° C./750 rpm for 4 hours. The pH of the sample solutions is checked after 1 hour to ensure that the desired pH is maintained throughout (+0.2). After equilibration, the appearance is noted, and the final pH of the saturated solution is measured. Samples are then filtered through a glass ‘C’ fibre filter (Particle retention size 1.2 μm), before dilution with buffer as appropriate. Quantitation is by HPLC with reference to a standard solution of approximately 0.15 mg/ml. Different volumes of the standard, diluted and undiluted sample solutions are injected.
The HPLC method for solubility measurements is as follows:
Analysis is performed on an Agilent HP1100/Infinity II 1260 series system equipped with a diode array detector and using OpenLAB software.

Nc1ccccc1NC(=O)c1ccc(CNC(=O)OCc2cccnc2)cc1.O=C(O)CCC(=O)O [Form A of entinostat compound with succinic acid]
time the form remains stable, as evidenced by XRPD ([1]; 25° C./97% RH): at least 28 days | time the form remains stable, as evidenced by XRPD ([1]; 40° C./75% RH): at least 28 days | reversible water uptake by GVS ([2]; 25° C., 0-90% RH): ~0.5 wt % | post GVS XRPD, change of crystalline form ([2]; after GVS cycle): no change in crystalline form

Nc1ccccc1NC(=O)c1ccc(CNC(=O)OCc2cccnc2)cc1.O=C(O)CCC(=O)O [Form C of entinostat compound with succinic acid]
time the form remains stable, as evidenced by XRPD ([1]; 40° C./75% RH): at least 7 days

Nc1ccccc1NC(=O)c1ccc(CNC(=O)OCc2cccnc2)cc1.O=C(O)CCC(=O)O [Form B of entinostat compound with succinic acid]
time the form remains stable, as evidenced by XRPD ([1]; 40° C./75% RH): at least 7 days

Nc1ccccc1NC(=O)c1ccc(CNC(=O)OCc2cccnc2)cc1 [U.S. Pat. No. 7,973,166 Polymorph A, N-(2-aminophenyl)-4-[N-(pyridine-3-yl)-methoxycarbonylamino-methyl]-benzamide]
solubility at 4 h ([3]; aqueous buffer, pH 4.5 acetate buffer): 190 µg/mL (≈ 505 µM) | solubility at 4 h ([3]; aqueous buffer, pH 6.8 phosphate buffer): 75 µg/mL (≈ 199 µM) | solubility at 4 h ([3]; aqueous buffer, pH 7.5 phosphate buffer): 72 µg/mL (≈ 191 µM) | solubility at 4 h ([3]; buffer pH 2.8, aqueous buffer, pH 2.8 buffer): 5900 µg/mL (≈ 15700 µM) | solubility at 4 h ([3]; simulated gastric fluid, pH 1.2 hydrochloric acid buffer): > 7900 µg/mL

Nc1ccccc1NC(=O)c1ccc(CNC(=O)OCc2cccnc2)cc1.O=C(O)C=CC(=O)O
stability of crystalline form (no change in form by XRPD) ([1]; 40° C./75% RH): stable at 40° C./75% RH for at least two weeks
